Test results published in US12577228B2, “Dihydrocyclopenta-isoquinoline-sulfonamide derivatives compounds” (UCB Biopharma SRL, priority 2019, dated 2026).
Counter-ions that a name gives are not always drawn.

target: T1, IgE-Tb / soluble IgE receptor FcεRIα with a Y131A mutation (Homo sapiens, UniProt P01854, N146Q/N252Q); assay: in vitro FRET assay: binding of IgE-Tb to receptor FcεRIα-Y131A-AF488 and its inhibition by compounds; settings: 5 nM IgE-Tb, 25 nM FcεRIα-Y131A-AF488, 2 hours at room temperature; read-out: FRET IC50 range
T1 construct: fused on or other part: Terbium chelate (LanthaScreen amine-reactive) on IgE-Fc; Alexa Fluor 488 hydrazide on the oxidised glycans of sFcεRIα; Both are labels and no part of the key
T1 sequence (P01854 104-427 N146Q/N252Q): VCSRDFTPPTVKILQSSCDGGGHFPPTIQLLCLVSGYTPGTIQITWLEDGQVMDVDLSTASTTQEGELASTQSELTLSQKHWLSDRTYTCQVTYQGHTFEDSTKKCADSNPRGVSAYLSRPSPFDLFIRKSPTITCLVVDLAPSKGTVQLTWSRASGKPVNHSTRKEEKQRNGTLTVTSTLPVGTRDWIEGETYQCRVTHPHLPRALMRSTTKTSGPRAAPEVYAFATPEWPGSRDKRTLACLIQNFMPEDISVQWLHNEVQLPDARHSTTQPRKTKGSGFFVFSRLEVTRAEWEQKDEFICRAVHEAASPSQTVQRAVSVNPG
T1 sequence (P12319 26-201 Y156A partner): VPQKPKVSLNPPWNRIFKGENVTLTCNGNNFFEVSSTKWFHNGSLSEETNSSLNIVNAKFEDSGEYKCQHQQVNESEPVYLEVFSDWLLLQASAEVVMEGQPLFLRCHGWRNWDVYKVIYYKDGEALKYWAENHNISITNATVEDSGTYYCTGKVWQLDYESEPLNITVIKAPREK

`Cn1nccc1C(=O)NC1Cc2cc3cnc(C4CC4)cc3c(S(=O)(=O)NCC(C)(C)F)c2C1` (centres unmarked) [Example 104, N-[3-cyclopropyl-5-[(2-fluoro-2-methylpropyl)sulfamoyl]-7,8-dihydro-6H-cyclopenta[g]isoquinolin-7-yl]-2-methylpyrazole-3-carboxamide] and `CC(C)(F)CNS(=O)(=O)c1c2c(cc3cnc(C4CC4)cc13)CC(NC(=O)c1cccnc1)C2` (centres unmarked) [Example 6, N-[3-cyclopropyl-5-[(2-fluoro-2-methylpropyl)sulfamoyl]-7,8-dihydro-6H-cyclopenta[g]isoquinolin-7-yl]pyridine-3-carboxamide] fall in the same range of IC50: 50 to 100 nM for the first, 50 to 100 nM for the second.

`CC(C)CNS(=O)(=O)c1c2c(cc3cnc(C4CC4)cc13)CCC2O` (centres unmarked) [Example 48, 3-cyclopropyl-6-hydroxy-N-(2-methylpropyl)-7,8-dihydro-6H-cyclopenta[g]isoquinoline-5-sulfonamide] and `CC(C)CNS(=O)(=O)c1c2c(cc3cnc(C4CC4)cc13)OCO2` [Example 68, 7-cyclopropyl-N-(2-methylpropyl)-[1,3]dioxolo[4,5-g]isoquinoline-9-sulfonamide] fall in the same range of IC50: 100 to 2000 nM for the first, 100 to 2000 nM for the second.

`Cc1ccc2c(C(=O)N[C@@H]3Cc4cc5cnc(C6CC6)cc5c(S(=O)(=O)NCC(C)(C)F)c4C3)c[nH]c2c1` [Example 33, N-[(7R)-3-cyclopropyl-5-[(2-fluoro-2-methylpropyl)sulfamoyl]-7,8-dihydro-6H-cyclopenta[g]isoquinolin-7-yl]-6-methyl-1H-indole-3-carboxamide] and `CC(C)(F)CNS(=O)(=O)c1c2c(cc3cnc(C4CC4)cc13)C[C@@H](NC(=O)c1c[nH]c3ccc(F)cc13)C2` [Example 131, N-[(7R)-3-cyclopropyl-5-[(2-fluoro-2-methylpropyl)sulfamoyl]-7,8-dihydro-6H-cyclopenta[g]isoquinolin-7-yl]-5-fluoro-1H-indole-3-carboxamide] fall in the same range of IC50: 10 to 50 nM for the first, 10 to 50 nM for the second.

First: CC(C)(F)CNS(=O)(=O)c1c2c(cc3cnc(C4CC4)cc13)CC(Nc1ccc(N3CC(C)(O)C3)nc1)C2 (centres unmarked) [Example 27, 3-cyclopropyl-N-(2-fluoro-2-methylpropyl)-7-[[6-(3-hydroxy-3-methylazetidin-1-yl)pyridin-3-yl]amino]-7,8-dihydro-6H-cyclopenta[g]isoquinoline-5-sulfonamide]
Second: C[S+]([O-])c1ccc(NC2Cc3cc4cnc(C5CC5)cc4c(S(=O)(=O)NCC(C)(C)F)c3C2)cn1 (centres unmarked) [Example 139, 3-cyclopropyl-N-(2-fluoro-2-methylpropyl)-7-[(6-methylsulfinylpyridin-3-yl)amino]-7,8-dihydro-6H-cyclopenta[g]isoquinoline-5-sulfonamide]
The IC50 of the first is higher: 100 to 2000 nM for the first, 10 to 50 nM for the second. The second is the more potent here.

`CC(C)(F)CNS(=O)(=O)c1c2c(cc3cnc(C4CC4)cc13)C[C@H](n1cnc(C(N)=O)c1N)C2` [Example 90, 5-amino-1-[(7S)-3-cyclopropyl-5-[(2-fluoro-2-methylpropyl)sulfamoyl]-7,8-dihydro-6H-cyclopenta[g]isoquinolin-7-yl]imidazole-4-carboxamide] and `CC(C)(F)CNS(=O)(=O)c1c2c(cc3cnc(C4CC4)cc13)CC(n1ccnc1NCC1CC1)C2` (centres unmarked) [Example 58, 3-cyclopropyl-7-[2-(cyclopropylmethylamino)imidazol-1-yl]-N-(2-fluoro-2-methylpropyl)-7,8-dihydro-6H-cyclopenta[g]isoquinoline-5-sulfonamide] fall in the same range of IC50: 100 to 2000 nM for the first, 100 to 2000 nM for the second.

First: CC(C)(F)CNS(=O)(=O)c1c2c(cc3cnc(C4CC4)cc13)CC(NC1=CS(=O)(=O)CC1)C2 (centres unmarked) [Example 40, 3-cyclopropyl-7-[(1,1-dioxo-2,3-dihydrothiophen-4-yl)amino]-N-(2-fluoro-2-methylpropyl)-7,8-dihydro-6H-cyclopenta[g]isoquinoline-5-sulfonamide]
Second: CC(C)(F)CNS(=O)(=O)c1c2c(cc3cnc(C4CC4)cc13)CC(NC1=CC(=O)CCC1)C2 (centres unmarked) [Example 7, 3-cyclopropyl-N-(2-fluoro-2-methylpropyl)-7-[(3-oxocyclohexen-1-yl)amino]-7,8-dihydro-6H-cyclopenta[g]isoquinoline-5-sulfonamide]
The IC50 of the first is higher: 100 to 2000 nM for the first, 50 to 100 nM for the second. The second is the more potent here.

First: CCNC(=O)N1Cc2cc3cnc(C4CC4)cc3c(S(=O)(=O)NCC(C)C)c2C1 [Example 100, 7-cyclopropyl-N-ethyl-9-(2-methylpropylsulfamoyl)-1,3-dihydropyrrolo[3,4-g]isoquinoline-2-carboxamide]
Second: CCNC(=O)NC1Cc2cc3cnc(C4CC4)cc3c(S(=O)(=O)NCC(C)C)c2C1 (centres unmarked) [Example 44, 1-[3-cyclopropyl-5-(2-methylpropylsulfamoyl)-7,8-dihydro-6H-cyclopenta[g]isoquinolin-7-yl]-3-ethylurea]
The IC50 of the first is higher: 100 to 2000 nM for the first, 10 to 50 nM for the second.

`CC(C)(F)CNS(=O)(=O)c1c2c(cc3cnc(C4CC4)cc13)C[C@@H](NC(=O)c1nccc3ccccc13)C2` [Example 135, N-[(7R)-3-cyclopropyl-5-[(2-fluoro-2-methylpropyl)sulfamoyl]-7,8-dihydro-6H-cyclopenta[g]isoquinolin-7-yl]isoquinoline-1-carboxamide] and `Cc1ncccc1-n1cnnc1NC1Cc2cc3cnc(C4CC4)cc3c(S(=O)(=O)NCC(C)(C)F)c2C1` (centres unmarked) [Example 78, 3-cyclopropyl-N-(2-fluoro-2-methylpropyl)-7-[[4-(2-methylpyridin-3-yl)-1,2,4-triazol-3-yl]amino]-7,8-dihydro-6H-cyclopenta[g]isoquinoline-5-sulfonamide] fall in the same range of IC50: 100 to 2000 nM for the first, 100 to 2000 nM for the second.

First: CC(C)(F)CNS(=O)(=O)c1c2c(cc3cnc(C4CC4)cc13)C[C@@H](Nc1ccc(C(F)F)nc1)C2 [Example 118, (7R)-3-cyclopropyl-7-[[6-(difluoromethyl)pyridin-3-yl]amino]-N-(2-fluoro-2-methylpropyl)-7,8-dihydro-6H-cyclopenta[g]isoquinoline-5-sulfonamide]
Second: Cc1nnc(-c2ccc(N[C@@H]3Cc4cc5cnc(C6CC6)cc5c(S(=O)(=O)NCC(C)(C)F)c4C3)cn2)o1 [Example 37, (7R)-3-cyclopropyl-N-(2-fluoro-2-methylpropyl)-7-[[6-(5-methyl-1,3,4-oxadiazol-2-yl)pyridin-3-yl]amino]-7,8-dihydro-6H-cyclopenta[g]isoquinoline-5-sulfonamide]
The IC50 of the first is higher: 10 to 50 nM for the first, 1 to 10 nM for the second.

First: CC(C)(F)CNS(=O)(=O)c1c2c(cc3cnc(C4CC4)cc13)C[C@@H](Nc1cnc(C3(O)COC3)nc1)C2 [Example 30, (7R)-3-cyclopropyl-N-(2-fluoro-2-methylpropyl)-7-[[2-(3-hydroxyoxetan-3-yl)pyrimidin-5-yl]amino]-7,8-dihydro-6H-cyclopenta[g]isoquinoline-5-sulfonamide]
Second: CC(C)(F)CNS(=O)(=O)c1c2c(cc3cnc(C4CC4)cc13)C[C@@H](NC1=CC(=O)COC1)C2 [Example 127, (7R)-3-cyclopropyl-N-(2-fluoro-2-methylpropyl)-7-[(5-oxo-2H-pyran-3-yl)amino]-7,8-dihydro-6H-cyclopenta[g]isoquinoline-5-sulfonamide]
The IC50 of the first is lower: 10 to 50 nM for the first, 100 to 2000 nM for the second. The first is the more potent here.

First: Cc1nnc(NC2Cc3cc4cnc(C5CC5)cc4c(S(=O)(=O)NCC(C)(C)F)c3C2)o1 (centres unmarked) [Example 97, 3-cyclopropyl-N-(2-fluoro-2-methylpropyl)-7-[(5-methyl-1,3,4-oxadiazol-2-yl)amino]-7,8-dihydro-6H-cyclopenta[g]isoquinoline-5-sulfonamide]
Second: Cc1nnc(-c2ccc(N[C@@H]3Cc4cc5cnc(C6CC6)cc5c(S(=O)(=O)NCC(C)(C)F)c4C3)cc2)o1 [Example 70, (7R)-3-cyclopropyl-N-(2-fluoro-2-methylpropyl)-7-[4-(5-methyl-1,3,4-oxadiazol-2-yl)anilino]-7,8-dihydro-6H-cyclopenta[g]isoquinoline-5-sulfonamide]
The IC50 of the first is higher: 100 to 2000 nM for the first, 10 to 50 nM for the second.

First: CC(C)(F)CNS(=O)(=O)c1c2c(cc3cnc(C4CC4)cc13)CC(Nc1cncnc1NCC1CC1)C2 (centres unmarked) [Example 19, 3-cyclopropyl-7-[[4-(cyclopropylmethylamino)pyrimidin-5-yl]amino]-N-(2-fluoro-2-methylpropyl)-7,8-dihydro-6H-cyclopenta[g]isoquinoline-5-sulfonamide]
Second: CC(C)(F)CNS(=O)(=O)c1c2c(cc3cnc(C4CC4)cc13)CC(NC1=CC(=O)C1(C)C)C2 (centres unmarked) [Example 98, 3-cyclopropyl-7-[(4,4-dimethyl-3-oxocyclobuten-1-yl)amino]-N-(2-fluoro-2-methylpropyl)-7,8-dihydro-6H-cyclopenta[g]isoquinoline-5-sulfonamide]
The IC50 of the first is lower: 10 to 50 nM for the first, 100 to 2000 nM for the second. The first is the more potent here.

Compared with `CC(C)(F)CNS(=O)(=O)c1c2c(cc3cnc(C4CC4)cc13)CC1(COC(=O)N1)C2` (centres unmarked) [Example 49, 3′-cyclopropyl-N-(2-fluoro-2-methylpropyl)-2-oxospiro[1,3-oxazolidine-4,7′-6,8-dihydrocyclopenta[g]isoquinoline]-5′-sulfonamide], `Cn1ccc(NC2Cc3cc4cnc(C5CC5)cc4c(S(=O)(=O)NCC(C)(C)F)c3C2)cc1=O` (centres unmarked) [Example 96, 3-cyclopropyl-N-(2-fluoro-2-methyl-propyl)-7-[(1-methyl-2-oxo-4-pyridyl)amino]-7,8-dihydro-6H-cyclopenta[g]isoquinoline-5-sulfonamide; formate salt] is lower in IC50: 100 to 2000 nM for the first, 10 to 50 nM for the second.

First: CCOC(=O)c1nnc(N[C@@H]2Cc3cc4cnc(C5CC5)cc4c(S(=O)(=O)NCC(C)(C)F)c3C2)s1 [Example 64, ethyl 5-[[(7R)-3-cyclopropyl-5-[(2-fluoro-2-methylpropyl)sulfamoyl]-7,8-dihydro-6H-cyclopenta[g]isoquinolin-7-yl]amino]-1,3,4-thiadiazole-2-carboxylate]
Second: CC(C)(F)CNS(=O)(=O)c1c2c(cc3cnc(C4CC4)cc13)CC(c1nc3ccncc3[nH]1)C2 (centres unmarked) [Example 56, 3-cyclopropyl-N-(2-fluoro-2-methylpropyl)-7-(3H-imidazo[4,5-c]pyridin-2-yl)-7,8-dihydro-6H-cyclopenta[g]isoquinoline-5-sulfonamide]
The IC50 of the first is lower: 10 to 50 nM for the first, 50 to 100 nM for the second. The first is the more potent here.

`CC(C)(C)CNC(=O)C1Cc2cc3nnc(C4CC4)cc3c(S(=O)(=O)NCC(C)(C)F)c2C1` (centres unmarked) [Example 113, 3-cyclopropyl-N-(2,2-dimethylpropyl)-5-[(2-fluoro-2-methylpropyl)sulfamoyl]-7,8-dihydro-6H-cyclopenta[g]cinnoline-7-carboxamide] showed an IC50 of 100 to 2000 nM.
